System: EN1 and LMX1A
Assay: qRT-PCR analysis of ventral midbrain markers EN1 and LMX1A in imDAP cells
Type: cell-based, human
Settings: 3-step protocol
Procedure: (1) qRT-PCR • 1. For qRT-PCR analysis of mRNA gene expression, RNA should be harvested from at least 2×10^6 cells. • 2. Harvest cells, add 350 μl of buffer RLT+1% (vol/vol) β-mercaptoethanol to the well, transfer the lysate to a 1.5 ml tube, and put it immediately on ice. • 3. Perform RNA extraction using the Tiangen Kit (DP430) and following the manufacturer's protocol ‘Purification of total RNA from animal and human cells’. • 4. When the RNA extraction was completed, determine the RNA concentration using a Nanodrop instrument. • 5. Perform the first-strand cDNA synthesis reaction with 1 μg of RNA using the HiScript™ II Q RT SuperMIX for qPCR (+gDNA wiper) Kit (Vazyme, #R223-01) for RT-qPCR. Follow the manufacturer's ‘First-Strand cDNA Synthesis’ protocol. This reaction would yield a 20 μl product. • 6. Dilute 10 μl cDNA product in 80 μl of nuclease-free water. • 7. Pipette the diluted cDNA product (1 μl), Sybr green master mix (5 μl, Transgen, #AQ131) and 0.95 μM reverse/forward primer mix (4 μl) into a 384-well PCR plate in triplicate, either manually or using an automated pipetting robot. The complete primer panel included the target genes and the housekeeping gene (RPL13A). In the analysis, the expression level of gene was determined by using a sample of undifferentiated hPSCs as control. • 8. Analyze the samples by running a quantitative PCR on the LightCycler 480 instrument using a 40x cycle two-step protocol with a 60° C., 60 sec annealing/elongation step and a 95° C., 30 sec denaturation step. The average CT value from the three technical replicates was used for calculation of relative gene expression using the ΔΔCT method. […]
On Day-1, EB formation (Stage 1) was carried out by dissociating hiPSCs (Nuwacell) to form a single-cell suspension and resuspending it in Epic medium (Nuwacell, #RP01001) containing 10 μM Blebbistatin (MCE, #HY-13441) in T25 flasks on a belly dancer and culturing the cells overnight. […] On Day 16 (at the end of S2-2), imDAP cells were collected and analyzed by qRT-PCR assay for ventral midbrain marker EN1 and LMX1A. […]

With Cc1cnc(-c2cnc(NCCNc3ccc(C#N)cn3)nc2-c2ccc(Cl)cc2Cl)[nH]1 [CHIR, CHIR99021] the “expression levels of EN1 and LMX1A” value (CHIR 5 μM and 7.5 μM compared to 10 μM) was “better results”, the “expression levels of EN1 and LMX1A” value (CHIR 7.5 μM Stage 2-2 from Day 3 to Day 6 versus Day 3 to Day 10) was “comparable” and the “expression levels of EN1 and LMX1A” value (high CHIR 5, 7.5 or 10 μM Day 3 to Day 10, relative to the 2-step protocol) was “increased”.

Source: patent US20250136934A1, “PRODUCTION OF INDUCED MIDBRAIN DOPAMINERGIC PROGENITOR CELLS FROM PLURIPOTENT STEM CELLS” (NUWACELL BIOTECHNOLOGIES CO., LTD., priority 2023, published 2025)
